The term LD50 denotes the dose at which mortality reaches 50%.

The values that follow come from US4110460A, “2,3-Dihydro-imidazo[2,1-b]-thiazole derivatives and applications thereof” (Metabio, priority 1976, dated 1978).

Series [1] relates to hyperthermia induced in rats by subcutaneous injection of barm. Put plainly: antipyretic activity, barm (yeast)-induced hyperthermia in rats. It counts as in vivo, rat. As to conditions: po, intragastric, 17 hours after yeast injection, lowest active dosage, read-out: active from a dosage of (antipyretic activity). The method, then:
Hyperthermia is induced in rats by subcutaneous injection of barm, at a dosage of 4 g/kg.
The treatments are administered by the intragastric route, 17 hours after yeast injection.
The change in rectal temperature of the rats is compared, as a function of time, in the absolute reference animals, the "barm" reference animals and the treated animals.

The test system of series [2] is writhing induced by intraperitoneal acetic acid in mice. Put plainly: acetic acid writhing test in mice (analgesic activity). Conditions: for Analgesic activity (writhing test): oral, mice, 0.5 hour prior to i.p. acetic acid, 15 minutes recording, rated + to ++++. Details: key to Analgesic activity (writhing test): rated, according to its intensity, with from 1 + to 4 +'s, with from 1 + to 4 +'s; ++++: rated, according to its intensity, with from 1 + to 4 +'s. It counts as in vivo, mouse. The method, then: The analgesic activity was determined according to the conventional testing methods for said activity: the writhing test. Mice are given a single intraperitoneal injection of 0.2 ml 6°/129 acetic acid.
The test compound is administered orally 0.5 hour prior to the acetic acid injection. The number of characteristic writhing movements inducted by pain is recorded during the 15 minutes which follow the acetic acid injection.
The analgesic action of the various derivatives is rated, according to its intensity, with from 1 + to 4 +'s in the following table.
On the technique in general: Writhing tests count abdominal constrictions after an irritant is injected.

The next series relates to rats. Nature of the series: chronic toxicity tests in rats. It counts as in vivo, rat. As to conditions: 40 mg/kg/day.
In series [3] the test system is ultra-violet induced erythema in guinea-pigs. Nature of the series: ultra-violet induced erythema in guinea-pigs. It counts as in vivo, guinea-pig. Conditions: intragastric. The method, then: Erythema is induced in depilated guinea-pigs placed at a distance of 25 cm from a 300 watt mercury vapor lamp.
The back of the guinea-pigs is covered with a coat of flexible rubber in which 3 circular perforations 8 mm in diameter are effected. Blind evaluation of the erythema is carried out, 2 hrs and 5 hrs after irradiation.
The treatment is administered by the intragastric route, under a volume of 5 ml/kg.

The subject of series [4] is carrageenin-induced edema of the rear limb of rats. Put plainly: carrageenin-induced edema of the rear limb of rats (anti-inflammatory activity). It counts as in vivo, rat. Set-up: Anti-inflammatory activity (carrageenin-induced edema): key to the marks not given beside the values. Conditions: for Anti-inflammatory activity (carrageenin-induced edema): oral, rats, after 1.5 hour, rated + to ++++; for ED30 / ED40: carrageenin-induced edema in rat; for ED30: read-out: AD30; for ED40: read-out: AD40. The text has this:
The anti-inflammatory action of the various compounds is rated, according to its intensity, with 1 + to 4 +'s in the following Table.
1. Carrageenin-induced edema in rat

Another series has as its system fasting rats. Put plainly: ulcerogenic activity in fasting rats. It counts as in vivo, rat.
Series [5] relates to Freund-adjuvant induced arthritis in rats. Nature of the series: Freund-adjuvant induced arthritis in rats. Conditions: Rattus norvegicus, limb volume, X-ray examination, weight curve, lowest active dosage, read-out: inhibiting activity on the development of adjuvant-induced polyarthritis, apparent from a dosage of. It counts as in vivo. The method, then:
Injection of Mycobacterium butyricum is carried out at the level of the hind limb of rats, and produces as early as the 10th day an arthritis which develops rapidly.
The inhibiting activity of the compound of Example 1 on the development of adjuvant-induced polyarthritis in rats is apparent from a dosage of 5 mg/kg.

The subject of series [6] is cotton-induced granuloma in rat. Nature of the series: cotton-induced granuloma in rat. Conditions: male rats, oral during 7 days. It counts as in vivo. The method, then: The test is conducted according to the technique of […]. Am. Chem. Soc., 80, 3161, 1958) The male rats are distributed in randomized groups, slightly anesthetized and depilated in the dorsal area. An incision of about 1 cm is effected along the spine, and 2 pellets of carded cotton weighing each 20 mg are placed under the skin on both sides of the neck. The treatments are administered orally during 7 days, as suspensions in BT medium. The reference group is administered BT medium alone, under the same experimental conditions. 24 hours after the last ingestion, the pellets are excised and weighed.

A further series deals with male mice. Nature of the series: acute oral toxicity in male mice. It counts as in vivo. The method, then: (§1) Acute toxicity was determined orally in male mice.
The nature of series [7]: acute oral toxicity in male mice. It counts as in vivo. Conditions: mouse, in vivo, po, male mice; read-out: LD50 per os. The method, then: as §1

Regarding `COc1ccc(-c2nc3n(c2-c2ccc(OC)cc2)CCS3)cc1` [Example 1, 2,3-dihydro-5,6-(bis-paramethoxyphenyl)-imidazo[2,1-b]-thiazole], in series [1], the minimal effective dose was 3.38 mg/kg. Further, the “analgesic activity on visceral pain” value in series [2] (acetic acid writhing test in mice, in words) is recorded as “highly marked analgesic activity on visceral pain”. Further, the “Analgesic activity (writhing test)” value in [2] is “++++”. Further, the “major side-effects (chronic toxicity)” value with rats is “failed to provide evidence of any major side-effects”. Also, the “protective activity, dependence on dosage (erythema)” value in series [3] is “proportional to the dosage administered”. In addition, the “protective activity still maintained ... hours after administration” value in series [3] (duration) is not below 6 h. Further, in [3] (onset), the “protective activity highly marked as early as the first ... hours” value is not above 3 h. Moreover, the “Anti-inflammatory activity (carrageenin-induced edema)” value (from here on “Anti-inflammatory activity”) in series [4] is on record as “++++”. In [4] (po, 1.5 h), the ED30 came out at 5.22 mg/kg and the ED40 stood at 7.78 mg/kg. For the same molecule, the minimal effective dose in [4] (po, 1.5 h, rat, lowest active dosage, read-out: active from a dosage of (carrageenin-induced edema)) amounted to 3.38 mg/kg. Besides, the ulcerogenic activity entry in the series with fasting rats is recorded as “low ulcerogenic activity found in fasting rats is equivalent to that of the reference materials”. Also, the minimal effective dose in series [5] was 5 mg/kg. In series [6], the “activity relative to phenylbutazone (granuloma)” value was “twice as active as phenylbutazone” and the “inhibition of the development of a granuloma” value is on record as “inhibits the development of a granuloma”. Besides, in the series with male mice (mouse, in vivo, po), the LD50 per os was > 4,200 mg/kg.

Take `COc1ccc(-c2nc3n(c2-c2ccc(OC)cc2)CC(C)S3)cc1` (centres unmarked) [Example 3, 2-methyl-2,3-dihydro-5,6-(bis-paramethoxyphenyl)-imidazo[2,1-b]-thiazole]: the “Analgesic activity (writhing test)” value in series [2] is listed as “+++”. Moreover, the “Anti-inflammatory activity” value in series [4] was “+++”. For the same molecule, the median lethal dose (LD50) in [7] was more than 2000 mg/kg.

For the molecule `COc1ccc(-c2nc3n(c2-c2ccc(OC)cc2)C(C)CS3)cc1` (centres unmarked) [Example 4, 3-methyl-2,3-dihydro-5,6-(bis-paramethoxyphenyl)-imidazo[2,1-b]-thiazole], in series [2], the “Analgesic activity (writhing test)” value is “+++”. Moreover, in [7], the LD50 was more than 2000 mg/kg.

On to `COc1ccc(-c2nc3n(c2-c2ccc(OC)cc2)C(C)C(C)S3)cc1` (centres unmarked) [Example 7, 2,3-dimethyl-2,3-dihydro-5,6-bis(p-methoxyphenyl)-imidazo[2,1-b]-thiazole], for which, in series [2], the “Analgesic activity (writhing test)” value was “++++”. Also, the “Anti-inflammatory activity” value in [4] is on record as “+++”.

On to `COc1ccc(-c2nc3n(c2-c2ccc(OC)cc2)CCS3)cc1` [Example 22], for which, in the series on male mice (oral, male mice), the LD50 per os is reported as > 2,000 mg/kg.

With `CCCCC1C(=O)N(c2ccccc2)N(c2ccccc2)C1=O` [Phenylbutazone, reference compound], in series [4] (po, 1.5 h), the ED30 came to 16.1 mg/kg and the ED40 was determined as 27.4 mg/kg.
